Experimental data from US20100311694A1, “Set of Geldanamycin Derivatives and Their Preparation Methods” (Institute of Medicinal Biotechnology, Chinese Academy of …, priority 2008, published 2010).

Legend:
HBV = experiment: Anti-HBV activity (HBV DNA in cell lysate, spot hybridization); assay type: cell-based; conditions: HBV DNA content of the cells, reagent solution changed every 4 days
Procedure: Test Procedure for Anti-HBV Activity
Using cell culture method, the preparation of the cells to be tested (100,000 cell's/mL) is inoculated into cell culture plate in 100 μl each well and the cells are cultured 24 h at 37° C. in 5% CO2. Tests are carried out when the cells grow into a monolayer. The target compounds as well as the controls are prepared into a series of solutions of appropriate concentrations using the culture medium and are added into 96 well culture plate respectively in 4 wells per one concentration. Then the reagent solution in each well is changed into the fresh reagent solution with the same concentration every 4 days. A cell control without reagent treatment is simultaneously is set up. The observation index is based upon the pathological changes of the cells by observing the degrees of the pathological changes of the cells under microscope every 8 days. […] Cell control without drug treatment is simultaneously is set up. The reagent solution or control medium in each well is changed into the fresh reagent solution or fresh medium respectively every 4 days. After cytolysis of the cells, HBV DNA is extracted from the cell lysis solution according to the molecular cloning technical procedure. The spots of different samples are hybridized and the A values of different hybridized spots are measured using autoradiograghic technique. The HBV DNA contents in the cell control as well as in the drug treated samples are calculated using the regression equations obtained from the standard curves to obtain half effective concentration values, the results are shown in Table 1.

HIV-1 = experiment: Anti HIV-1 activity (HIV-1 P24 antigen in cell cultures); assay type: cell-based; conditions: 4 days after addition of the reagents
Procedure: Test Procedure of Anti HIV-1 Activity
8 reagent solutions of different diluted concentrations and positive control solutions are added into cell cultures in 96 well plate respectively. The sample of each diluted solutions is made duplicately and a control cell sample is also is set up. 100 μl of cell sample at a concentration of 2×10^5cells/ml is inoculated into the wells containing reagent in the plate. The cells samples are cultured in a saturated humidity culture chamber (at a 5% CO2 atmosphere) at 37° C. The pathological changes of cells are observed daily.

Compound: COC1C=CC=C(C)C(=O)NC2=CC(=O)C(NCCN3CCCCC3)=C(CC(C)CC(OC)C(O)C(C)C=C(C)C1OC(N)=O)C2=O (stereo not drawn) [GM-AEPD, 17-(2′-(1″-azacyclohexyl-1″-)ethylamino)-17-demethoxy geldanamycin]
- Activity of HBV inhibition IC50 (HBV): 0.08 µg/mL
- Activity of HIV inhibition IC50 (HIV-1): <0.01 µg/mL

Compound: COC1C=CC=C(C)C(=O)NC2=CC(=O)C(NCCc3ccccn3)=C(CC(C)CC(OC)C(O)C(C)C=C(C)C1OC(N)=O)C2=O (stereo not drawn) [GM-W18]
- Activity of HBV inhibition IC50 (HBV): 50.4 µg/mL
- Activity of HIV inhibition IC50 (HIV-1): 33.41 µg/mL

Compound: COC1C=CC=C(C)C(=O)NC2=CC(=O)C(NC3CCN(c4ccncc4)CC3)=C(CC(C)CC(OC)C(O)C(C)C=C(C)C1OC(N)=O)C2=O (stereo not drawn) [GM-W38]
- Activity of HBV inhibition IC50 (HBV): 0.64 µg/mL
- Activity of HIV inhibition IC50 (HIV-1): 1.59 µg/mL

Compound: COC1C=CC=C(C)C(=O)NC2=CC(=O)C(NCCCN3CCCC3)=C(CC(C)CC(OC)C(O)C(C)C=C(C)C1OC(N)=O)C2=O (stereo not drawn) [GM-W76]
- Activity of HBV inhibition IC50 (HBV): 0.01 µg/mL
- Activity of HIV inhibition IC50 (HIV-1): 0.24 µg/mL

Compound: CO[C@H]1/C=C/C=C(\C)C(=O)NC2=CC(=O)C(NCCc3ccc(S(N)(=O)=O)cc3)=C(C[C@H](C)C[C@H](OC)[C@H](O)[C@@H](C)/C=C(\C)[C@H]1OC(N)=O)C2=O [GM-208, 17-(4″-aminosulfonyl)phenylethylamino-17-demethoxy geldanamycin]
- Activity of HIV inhibition IC50 (HIV-1): >0.82 µg/mL

Compound: CCC(CO)(CO)NC1=C2CC(C)CC(OC)C(O)C(C)C=C(C)C(OC(N)=O)C(OC)C=CC=C(C)C(=O)NC(=CC1=O)C2=O (stereo not drawn) [GM-W63]
- Activity of HBV inhibition IC50 (HBV): 3.2 µg/mL
- Activity of HIV inhibition IC50 (HIV-1): 1.37 µg/mL

Compound: COC1C=CC=C(C)C(=O)NC2=CC(=O)C(NCCNC(=O)c3cccnc3)=C(CC(C)CC(OC)C(O)C(C)C=C(C)C1OC(N)=O)C2=O (stereo not drawn) [GM-418, 17-(2′-nicotinamidoethylamino)-17-demethoxy geldanamycin]
- Activity of HBV inhibition IC50 (HBV): 0.08 µg/mL
- Activity of HIV inhibition IC50 (HIV-1): 0.37 µg/mL

Compound: COC1C=CC=C(C)C(=O)NC2=CC(=O)C(NCC3CCC4CC3C4(C)C)=C(CC(C)CC(OC)C(O)C(C)C=C(C)C1OC(N)=O)C2=O (stereo not drawn) [GM-MTA, 17-(myrtanylamino)-17-demethoxy geldanamycin]
- Activity of HBV inhibition IC50 (HBV): 0.32 µg/mL
- Activity of HIV inhibition IC50 (HIV-1): 0.04 µg/mL

Compound: COC1C=CC=C(C)C(=O)NC2=CC(=O)C(NCCNCCO)=C(CC(C)CC(OC)C(O)C(C)C=C(C)C1OC(N)=O)C2=O (stereo not drawn) [GM-W26]
- Activity of HBV inhibition IC50 (HBV): 0.64 µg/mL
- Activity of HIV inhibition IC50 (HIV-1): 0.21 µg/mL

Compound: CCOC(=O)N1CCC(NC2=C3CC(C)CC(OC)C(O)C(C)C=C(C)C(OC(N)=O)C(OC)C=CC=C(C)C(=O)NC(=CC2=O)C3=O)CC1 (stereo not drawn) [GM-W80]
- Activity of HBV inhibition IC50 (HBV): 1.1 µg/mL
- Activity of HIV inhibition IC50 (HIV-1): 0.97 µg/mL

Compound: COC1C=CC=C(C)C(=O)NC2=CC(=O)C(NCC(O)c3ccccc3)=C(CC(C)CC(OC)C(O)C(C)C=C(C)C1OC(N)=O)C2=O (stereo not drawn) [GM-W36]
- Activity of HBV inhibition IC50 (HBV): 0.02 µg/mL
- Activity of HIV inhibition IC50 (HIV-1): 0.29 µg/mL

Compound: COC1C=CC=C(C)C(=O)NC2=C(NCC3CCCO3)C(=O)C(NCC3CCCO3)=C(CC(C)CC(OC)C(O)C(C)C=C(C)C1OC(N)=O)C2=O (stereo not drawn) [THFM-GM2]
- Activity of HBV inhibition IC50 (HBV): 0.064 µg/mL
- Activity of HIV inhibition IC50 (HIV-1): 0.24 µg/mL

Compound: COC1C=CC=C(C)C(=O)NC2=CC(=O)C(NCCC3OCCO3)=C(CC(C)CC(OC)C(O)C(C)C=C(C)C1OC(N)=O)C2=O (stereo not drawn) [GM-W28]
- Activity of HBV inhibition IC50 (HBV): 0.10 µg/mL
- Activity of HIV inhibition IC50 (HIV-1): 0.21 µg/mL

Compound: COC1C=CC=C(C)C(=O)NC2=CC(=O)C(NC(CO)C(C)C)=C(CC(C)CC(OC)C(O)C(C)C=C(C)C1OC(N)=O)C2=O (stereo not drawn) [GM-W58]
- Activity of HBV inhibition IC50 (HBV): 0.64 µg/mL
- Activity of HIV inhibition IC50 (HIV-1): 1.39 µg/mL

Compound: COC1C=CC=C(C)C(=O)NC2=CC(=O)C(NN3CCN(C)CC3)=C(CC(C)CC(OC)C(O)C(C)C=C(C)C1OC(N)=O)C2=O (stereo not drawn) [GM-W35]
- Activity of HBV inhibition IC50 (HBV): 4.36 µg/mL
- Activity of HIV inhibition IC50 (HIV-1): 3.48 µg/mL

Compound: COC1C=CC=C(C)C(=O)NC2=CC(=O)C(Nc3cnc(C)c(C)n3)=C(CC(C)CC(OC)C(O)C(C)C=C(C)C1OC(N)=O)C2=O (stereo not drawn) [GM-W57]
- Activity of HBV inhibition IC50 (HBV): 8.0 µg/mL
- Activity of HIV inhibition IC50 (HIV-1): 13.76 µg/mL

Compound: COC1C=CC=C(C)C(=O)NC2=CC(=O)C(NCCc3cccnc3)=C(CC(C)CC(OC)C(O)C(C)C=C(C)C1OC(N)=O)C2=O (stereo not drawn) [GM-W32]
- Activity of HBV inhibition IC50 (HBV): 6.4 µg/mL
- Activity of HIV inhibition IC50 (HIV-1): 0.48 µg/mL

Compound: COC1C=CC=C(C)C(=O)NC2=CC(=O)C(NCCC3CC(CC(=O)OC(C)(C)C)OC(C)(C)O3)=C(CC(C)CC(OC)C(O)C(C)C=C(C)C1OC(N)=O)C2=O (stereo not drawn) [GM-W79]
- Activity of HBV inhibition IC50 (HBV): 3.2 µg/mL
- Activity of HIV inhibition IC50 (HIV-1): 1.47 µg/mL

Compound: COC1C=CC=C(C)C(=O)NC2=CC(=O)C(NCCC3CCN(Cc4ccccc4)CC3)=C(CC(C)CC(OC)C(O)C(C)C=C(C)C1OC(N)=O)C2=O (stereo not drawn) [GM-W27]
- Activity of HBV inhibition IC50 (HBV): 3.9 µg/mL
- Activity of HIV inhibition IC50 (HIV-1): 13.81 µg/mL

Compound: COC1C=CC=C(C)C(=O)NC2=CC(=O)C(NNC(=O)c3ccco3)=C(CC(C)CC(OC)C(O)C(C)C=C(C)C1OC(N)=O)C2=O (stereo not drawn) [GM-W83]
- Activity of HBV inhibition IC50 (HBV): 3.2 µg/mL
- Activity of HIV inhibition IC50 (HIV-1): 3.56 µg/mL

Compound: COC1C=CC=C(C)C(=O)NC2=CC(=O)C(NCCOS(=O)(=O)O)=C(CC(C)CC(OC)C(O)C(C)C=C(C)C1OC(N)=O)C2=O (stereo not drawn) [GM-W17]
- Activity of HBV inhibition IC50 (HBV): 10.3 µg/mL
- Activity of HIV inhibition IC50 (HIV-1): 23.47 µg/mL

Compound: COC1C=CC=C(C)C(=O)NC2=CC(=O)C(NCC3OCCO3)=C(CC(C)CC(OC)C(O)C(C)C=C(C)C1OC(N)=O)C2=O (stereo not drawn) [GM-W29]
- Activity of HBV inhibition IC50 (HBV): 6.4 µg/mL
- Activity of HIV inhibition IC50 (HIV-1): 0.67 µg/mL

Compound: COC1C=CC=C(C)C(=O)NC2=CC(=O)C(NCC3CCCNC3)=C(CC(C)CC(OC)C(O)C(C)C=C(C)C1OC(N)=O)C2=O (stereo not drawn) [GM-W23]
- Activity of HBV inhibition IC50 (HBV): 0.32 µg/mL
- Activity of HIV inhibition IC50 (HIV-1): 0.46 µg/mL

Compound: COC1C=CC=C(C)C(=O)NC2=CC(=O)C(NC3CCc4ccccc43)=C(CC(C)CC(OC)C(O)C(C)C=C(C)C1OC(N)=O)C2=O (stereo not drawn) [GM-W21]
- Activity of HBV inhibition IC50 (HBV): 10.4 µg/mL
- Activity of HIV inhibition IC50 (HIV-1): 58.97 µg/mL

Compound: COC1C=CC=C(C)C(=O)NC2=CC(=O)C(NCc3ccc4c(c3)OCO4)=C(CC(C)CC(OC)C(O)C(C)C=C(C)C1OC(N)=O)C2=O (stereo not drawn) [GM-217, 17-(3′,4′-(Methylenedioxy)benzylamino)-17-demethoxygeldanamycin]
- Activity of HIV inhibition IC50 (HIV-1): 0.16 µg/mL

Compound: CO[C@H]1/C=C/C=C(\C)C(=O)NC2=C(NC[C@H]3CCCO3)C(=O)C(NC[C@H]3CCCO3)=C(C[C@H](C)C[C@H](OC)[C@H](O)[C@@H](C)/C=C(\C)[C@H]1OC(N)=O)C2=O [THFM-II, 17,19-di-(R)-tetrahydrofurfuryl amino-17-demethoxy geldanamycin]
- Activity of HBV inhibition IC50 (HBV): 0.013 µg/mL
- Activity of HIV inhibition IC50 (HIV-1): >22.2 µg/mL

Compound: COC1C=CC=C(C)C(=O)NC2=CC(=O)C(NCC(=N)N)=C(CC(C)CC(OC)C(O)C(C)C=C(C)C1OC(N)=O)C2=O (stereo not drawn) [GM-W24]
- Activity of HBV inhibition IC50 (HBV): 0.01 µg/mL
- Activity of HIV inhibition IC50 (HIV-1): 0.11 µg/mL

Compound: COC1C=CC=C(C)C(=O)NC2=CC(=O)C(NCCOC(C)C)=C(CC(C)CC(OC)C(O)C(C)C=C(C)C1OC(N)=O)C2=O (stereo not drawn) [GM-W31]
- Activity of HBV inhibition IC50 (HBV): 0.32 µg/mL
- Activity of HIV inhibition IC50 (HIV-1): 0.32 µg/mL

Compound: COC1C=CC=C(C)C(=O)NC2=CC(=O)C(NCC(O)c3ccccc3)=C(CC(C)CC(OC)C(O)C(C)C=C(C)C1OC(N)=O)C2=O (stereo not drawn) [GM-W9]
- Activity of HBV inhibition IC50 (HBV): 3.2 µg/mL
- Activity of HIV inhibition IC50 (HIV-1): 2.46 µg/mL

Compound: COC1C=CC=C(C)C(=O)NC2=CC(=O)C(NC(C)Cc3c[nH]c4ccccc34)=C(CC(C)CC(OC)C(O)C(C)C=C(C)C1OC(N)=O)C2=O (stereo not drawn) [GM-W89]
- Activity of HBV inhibition IC50 (HBV): 2.36 µg/mL
- Activity of HIV inhibition IC50 (HIV-1): 1.68 µg/mL

Compound: 17-(trans-4′-hydroxyl cyclohexylamino)-17-demethoxy geldanamycin [GM-223]
- Activity of HIV inhibition IC50 (HIV-1): 0.10 µg/mL

Compound: CO[C@H]1/C=C/C=C(\C)C(=O)NC2=CC(=O)C(NCCc3cccs3)=C(C[C@H](C)C[C@H](OC)[C@H](O)[C@@H](C)/C=C(\C)[C@H]1OC(N)=O)C2=O [GM-221, 17-(2′-thienylethylamino)-17-demethoxy geldanamycin]
- Activity of HIV inhibition IC50 (HIV-1): 0.06 µg/mL
